In patent publication US20070053934A1, “Polyvalent multimeric composition containing active polypeptides, pharmaceutical compositions and methods of using the same” (priority 2005, published 2007):
Where a SMILES comes first, the peptide text is derived from it. Bridges are numbered along the chain shown (N, C = ends). Roman numbers before positions name the chains, in order. Where no end group is shown, it is not given here. Side-chain parts run from the residue outwards. [ ]: non-standard residue; d: D form. βAla = NCCC(=O)O

Experiments:
S Aureus (ATCC BAA-44) = details: mean of three experiments
E. Coli (D31) [1] = system: E. Coli (D31)
[2] = system: B. anthracis (Sterne 34F2); details: mean of three experiments
fresh sheep erythrocytes [3] = test: Hemolysis assay HD50 (Examples 1B and 2); type: cell-based; details: red cells of sheep
Procedure: Stock solutions of samples were prepared by the same procedure as in antibacterial assays. Hemolytic activity of monomeric peptides and multivalent ones were assessed on fresh sheep erythrocytes (Fitzgerald, Inc., MA) in 35 mM PBS buffer, 150 mM NaCl, pH 7.0. Peptide concentrations corresponding to 50% hemolysis were used as hemolytic dose (HD50) determined from dose-response curve (National Committee for Clinical Laboratory Standards. 2004, Methods for dilution antimicrobial susceptibility tests for bacteria that grow aerobically; sixth edition, approved standard M100-S14. National Committee for Clinical Laboratory Standards. Wayne, Pa.). Aliquots of cell suspension were mixed in eppendorf tubes with varying volumes of stocks and buffer for a total volume of 1 mL. Solutions containing same volume of DMSO without samples were used as control. These tubes were incubated at 37° C. for 1 hr, and then spun down at 3,000 rpm for 5 mins. The resulting supernatant was diluted by a factor of 40 in distilled water. The absorbances of the dilutions at 540 nm were measured in the Genesys 5 Spectrophotometer (Thermo Spectronic, Inc., NY). Zero hemolysis and 100% hemolysis controls were obtained by incubating the cells with buffer and 20% Tween, respectively. Hemolytic index (HI) was defined as HI=HD50/IC50. […]

S. aureus (ATCC BAA-44) = details: ATCC BAA-44, 18 h
E. Coli (D31) [4] = details: read-out: IC50 E. coli; 50% inhibition of growth, 18 h; mean of three experiments
fresh sheep erythrocytes [5] = type: cell-based; details: pH 7.2
Procedure: Hemolytic activity of model peptides was assessed on fresh sheep erythrocytes (Fitzgerald Inc., Concord, Mass.). Peptide concentrations yielding 50% hemolysis were used as hemolytic dose (HD50) determined from dose-response curves (Oren, Z., and Y. Shai. 1997. Selective lysis of bacteria but not mammalian cells by diastereomers of melittin: Structure-function study. Biochem. 36:1826-1835). […] The resulting supernatant was diluted by a factor of 40 in distilled water. The absorbances of the supernatant at λ=540 nm (OD540) were measured in the UV Spectrophotometer. Zero hemolysis and 100% hemolysis controls were obtained by incubating the cells with buffer and 1% Triton-X, respectively. Hemolytic index (HI) was defined as HI=HD50/IC50.

HIV = test: Inhibition of HIV infectivity by gp340-derived peptides; type: cell-based; details: peptide concentrations up to 10 ug/ml
[6] = system: HIV-1 attachment to and infection of H9 cells; test: Viral attachment assay; type: cell-based; details: for cell-associated virus (HIV-1 attachment to target cells): H9 cells, cell-associated p24 after virus exposure
Procedure: FIG. 8. Effect of gp-340 or N-SRCR on HIV-1 attachment and infection of cells. The H9 cells were treated with increasing concentrations of gp-340 (A and B) or N-SRCR (C) before and during HIV-1 exposure. After 4 hours, the cells were extensively washed of virus and either treated with or without trypsin at room temperature for 10 min and lysed for total cell-associated p24 measurement or re-fed with fresh medium to continue culture for 4 days to determine infection (data only for gp-340 shown). The values were average of triplicate wells and bars represent standard errors.
0.5×10^6 H9 cells were pre-incubated with purified gp-340 ranging from 2 to 10 μg/ml, or N-SRCR at 0.5 μg/ml at 37° C. for 60 min before viral exposure at 50 ng/ml p24 at 37° C. for 3 hours. The exposed cells were washed repeatedly to remove unbound virus, either lysed for cell-associated viral p24 measurement, treated with trypsin for 5 min before lysis, or refed with culture medium and maintained in culture for an additional 4 days. Culture medium was collected, cleared of cellular debris, lysed and viral p24 was measured.

HIV-1 IIIB = test: HIV inhibition assay, p24 readout
HIV-1 BaL = test: HIV inhibition assay, p24 readout; details: IL-2 stimulated human PBMCs, p24 in culture supernatant
HIV-1 NL4-3 = test: HIV inhibition assay, p24 readout; details: H9 cells, p24 in culture supernatant
[7] = system: HIV-1 gp120MN V3 peptide P6283; details: Ca++-dependent, ELISA
gp120 = gp120 (Human immunodeficiency virus type 1 group M subtype B, UniProt P03375); details: read-out: Kd of gp340 binding to gp120; earlier studies of the applicants
[8] = H9 cells, p24 in culture supernatant

**Q.** Which “Antimicrobial activity IC50” value (S Aureus (ATCC BAA-44)) does the source give for `CC(=O)N[C@@H](Cc1c[nH]c2ccccc12)C(=O)N[C@@H](CCCNC(=N)N)C(=O)N[C@@H](Cc1c[nH]c2ccccc12)C(=O)N[C@@H](CCCNC(=N)N)C(=O)NCCCC[C@H](NC(=O)[C@H](CCCNC(=N)N)NC(=O)[C@H](Cc1c[nH]c2ccccc12)NC(=O)[C@H](CCCNC(=N)N)NC(=O)[C@H](Cc1c[nH]c2ccccc12)NC(C)=O)C(=O)NCCCC[C@H](NC(=O)[C@H](CCCCNC(=O)[C@H](CCCNC(=N)N)NC(=O)[C@H](Cc1c[nH]c2ccccc12)NC(=O)[C@H](CCCNC(=N)N)NC(=O)[C@H](Cc1c[nH]c2ccccc12)NC(C)=O)NC(=O)[C@H](CCCNC(=N)N)NC(=O)[C@H](Cc1c[nH]c2ccccc12)NC(=O)[C@H](CCCNC(=N)N)NC(=O)[C@H](Cc1c[nH]c2ccccc12)NC(C)=O)C(=O)NCCC(N)=O` [(Ac—WRWR)4-lys2-Lys-Beta-Ala-NH2] (I: Ac-WRWRK([Arg-Trp-Arg-Trp-Ac])K[βAla]-NH2 / II: Ac-WRWRK([Arg-Trp-Arg-Trp-Ac]); amide I:6-II:C) here?
**A.** 12.5 µg/mL

**Q.** And the “Antimicrobial activity IC50” value (E. Coli (D31) [1])?
**A.** 9.5 µg/mL

**Q.** What about the “Antimicrobial activity IC50” value [2] of the same compound?
**A.** 15.5 µg/mL

**Q.** What about the “Hemolytic activity HD50” value (fresh sheep erythrocytes [3]) of the same compound?
**A.** 137 µg/mL

**Q.** For `N=C(N)NCCC[C@H](NC(=O)[C@H](Cc1c[nH]c2ccccc12)NC(=O)[C@@H](N)CCCNC(=N)N)C(=O)N[C@@H](Cc1c[nH]c2ccccc12)C(N)=O` [(RW)2—NH2] (H-RWRW-NH2), which IC50 (S. aureus (ATCC BAA-44)) is on record?
**A.** 210 µM

**Q.** And the IC50 (E. Coli (D31) [4])?
**A.** 730 µM

**Q.** What about the “HD50 Red blood cell” value (fresh sheep erythrocytes [5]) of the same compound?
**A.** 3700 µM

**Q.** `N=C(N)NCCC[C@H](NC(=O)[C@H](Cc1c[nH]c2ccccc12)NC(=O)[C@H](CCCNC(=N)N)NC(=O)[C@H](Cc1c[nH]c2ccccc12)NC(=O)[C@H](CCCNC(=N)N)NC(=O)[C@H](Cc1c[nH]c2ccccc12)NC(=O)[C@H](CCCNC(=N)N)NC(=O)[C@H](Cc1c[nH]c2ccccc12)NC(=O)[C@@H](N)CCCNC(=N)N)C(=O)N[C@@H](Cc1c[nH]c2ccccc12)C(N)=O` [(RW)5—NH2] was tested. Which IC50 (S. aureus (ATCC BAA-44)) did it give?
**A.** 3.6 µM

**Q.** And the IC50 (E. Coli (D31) [4])?
**A.** 6.2 µM

**Q.** And the “HD50 Red blood cell” value (fresh sheep erythrocytes [5])?
**A.** 76 µM

**Q.** `N=C(N)NCCC[C@H](N)C(=O)N[C@@H](Cc1c[nH]c2ccccc12)C(N)=O` [RW—NH2] (H-Arg-Trp-NH2) was tested. Which IC50 (S. aureus (ATCC BAA-44)) did it give?
**A.** 2100 µM

**Q.** What about the IC50 (E. Coli (D31) [4]) of the same compound?
**A.** 4300 µM

**Q.** And the “HD50 Red blood cell” value (fresh sheep erythrocytes [5])?
**A.** 8900 µM

**Q.** With GRVEYLXBGSW (GRVEVLYRGSW) [11 mer] as the compound, how does the “inhibition of HIV infectivity (anti-HIV activity)” value (HIV) read?
**A.** low, but measurable anti-HIV activity

**Q.** With “N-SRCR: recombinant N-terminal gp340 fragment: first SRCR domain and half of first SID, with His-6 and HSV gD tags, 35 kDa” as the compound, how does the “cell-associated virus (HIV-1 attachment to target cells)” value [6] read?
**A.** did not effect viral attachment

**Q.** What about the “concentration not toxic to H9 cells” value (H9 cells) of the same compound?
**A.** up to 10 μg/ml

**Q.** What about the “ID75 for IIIB” value (HIV-1 IIIB; [8]) of the same compound?
**A.** 2 µg/mL

**Q.** What about the “ID90 for IIIB” value (HIV-1 IIIB; [8]) of the same compound?
**A.** not achieved

**Q.** What about the “binding to immobilized gp120” value (HIV-1 gp120; gp120 captured with antibody D7324, ELISA) of the same compound?
**A.** shown to bind immobilized gp120

**Q.** And the “binding to gp120 upon sCD4 treatment of gp120” value (HIV-1 gp120; sCD4 pre-binding, detected by Ab-1527)?
**A.** significantly increased

**Q.** What about the “estimated ID90 for BaL” value (HIV-1 BaL) of the same compound?
**A.** 1.1 µg/mL

**Q.** What about the “estimated ID90 for NL4-3” value (HIV-1 NL4-3) of the same compound?
**A.** 1.5 µg/mL

**Q.** And the “binding to the peptide P6283” value [7]?
**A.** comparable to binding of gp-340

**Q.** For QGRVEVLYRGSWGEVC [16 mer], which “inhibition of HIV infectivity (anti-HIV activity)” value (HIV) is on record?
**A.** only modest inhibition of HIV infectivity

**Q.** How did the IC50 (S. aureus (ATCC BAA-44)) turn out when RWRWRW-NH2 [(RW)3—NH2] was run?
**A.** 8 µM

**Q.** What about the IC50 (E. Coli (D31) [4]) of the same compound?
**A.** 16 µM

**Q.** And the “HD50 Red blood cell” value (fresh sheep erythrocytes [5])?
**A.** 210 µM

**Q.** Which IC50 (S. aureus (ATCC BAA-44)) does the source give for RWRWRWRW-NH2 [(RW)4—NH2] here?
**A.** 5.1 µM

**Q.** And the IC50 (E. Coli (D31) [4])?
**A.** 9.6 µM

**Q.** And the “HD50 Red blood cell” value (fresh sheep erythrocytes [5])?
**A.** 100 µM

**Q.** “gp340: 340 kDa salivary agglutinin glycoprotein of the SRCR superfamily; recombinant or purified from saliva” was tested. Which Kd (gp120) did it give?
**A.** 0.0058 µM

**Q.** And the “viral replication in the treated cells” value ([6]; H9 cells cultured 4 days after exposure, p24)?
**A.** significantly inhibited

**Q.** And the “cell-associated virus (HIV-1 attachment to target cells)” value [6]?
**A.** not affected

**Q.** And the “blocking HIV-1 infection by expressed full length gp340” value (HIV-1 IIIB; culture supernatant of transfected 293 cells, compared with SAG from saliva)?
**A.** as active in blocking HIV-1 infection as SAG purified from human saliva
